Results published in US20240400560A1, “BICYCLIC HETEROCYCLIC DERIVATIVE HAVING VIRAL GROWTH INHIBITORY ACTIVITY AND PHARMACEUTICAL COMPOSITION CONTAINING SAME” (Shionogi & Co., Ltd., priority 2021, published 2024).
Where two headings read alike, the source gives them in different places.

What was measured:
[1] = tested on: SARS-CoV-2; experiment: Inhibitory activity of cytopathic effect (CPE) in HEK293T/ACE2-TMPRSS2 cells; type: cell-based; settings: Severe acute respiratory syndrome coronavirus 2, HEK-293T, 72 h
[2] = target: SARS-CoV-2 3CL protease (Severe acute respiratory syndrome coronavirus 2, UniProt P0DTD1); experiment: Inhibitory activity test against SARS-CoV-2 3CL proteases; type: biochemical
[3] = 50% SARS-CoV-2 infected cell death inhibitory concentration, HEK293T/ACE2-TMPRSS2 cells, CellTiter-Glo 2.0 after 3 days culture, read-out: EC50
[4] = read-out: IC50 (50% SARS-CoV-2 3CL protease inhibitory concentration)
[5] = HEK293T/ACE2-TMPRSS2 cells, cultured 3 days, CellTiter-Glo 2.0 luminescence, read-out: EC50 (50% SARS-CoV-2 infected cell death inhibitory concentration)
[6] = IC50 (50% SARS-CoV-2 3CL protease inhibitory concentration)
[7] = read-out: EC50 (50% SARS-CoV-2 infected cell death inhibitory concentration)

Structure (SMILES) | IC50 [2, 4] [nM] | EC50 [1, 5] [nM] | other results
[2H]C([2H])([2H])O[C@@H]1CCN(c2cc3c(c(OC)n2)c(=O)n(-c2cncc(Cl)c2C)c(=O)n3-c2ccc(F)c(Cl)c2)C1 (atropisomer, axis not shown) [Compound I-0947] | 2.3 | – | EC50 [1, 3]: 6.34 nM
Cn1cnc(Cn2c(=O)c3c4nccnc4c(N4CC[C@@H](O)C4)cc3n(Cc3cc(F)c(F)c(F)c3)c2=O)n1 (racemic) [Compound I-0552] | < 100 | 100 to 1000 | –
Cn1cnc(Cn2c(=O)c3c4ncn(C)c4c(N4CC[C@@H](F)C4)cc3n(Cc3cc(F)c(F)c(F)c3)c2=O)n1 (racemic) [Compound I-0554] | 330 | – | EC50 [1, 3]: 2750 nM
COc1nc(N2CC[C@@H](F)C2)cc2c1c(=O)n(Cc1ncn(C)n1)c(=O)n2Cc1cc(F)c(F)c(Cl)c1 [Compound I-0484] | < 100 | – | –
Cn1cnc(Cn2c(=O)c3c(F)c(Cl)c(-c4cc5c(cc4Cl)NC(=O)C5)cc3n(Cc3cc(F)c(F)c(Cl)c3)c2=O)n1 [Compound I-0492] | < 100 | – | –
COc1nc2cc(-c3cc(OC)c4c(=O)n(Cc5ncn(C)n5)c(=O)n(Cc5cc(F)c(F)c(F)c5)c4c3)c(Cl)cc2[nH]1 [Compound I-0501] | 6.4 | – | –
N#Cc1ccc(Cl)c(-c2cc3c(c4c2CCO4)c(=O)n(Cc2cc(F)c[nH]c2=O)c(=O)n3Cc2cc(F)c(F)c(F)c2)c1 [Compound I-0504] | < 100 | – | –
Cn1cnc(Cn2c(=O)c3c(F)c(Cl)c(-c4cc(C#N)ccc4Cl)cc3n(Cc3cc(F)c(F)c(Cl)c3)c2=O)n1 [Compound I-0506] | < 100 | – | –
COc1nc(N2CC[C@@H](C(N)=O)C2)cc2c1c(=O)n(-c1cncc(Cl)c1)c(=O)n2Cc1cc(F)c(F)c(F)c1 [Compound I-0511] | < 100 | – | –
COc1cc(-c2cnc(N)cc2Cl)cc2c1c(=O)n(Cc1ncn(C)n1)c(=O)n2Cc1cc(F)c(F)c(F)c1 [Compound I-0514] | < 100 | – | –
COc1nc2c(=O)n(Cc3ncn(C)n3)c(=O)n(Cc3cc(F)c(F)c(F)c3)c2cc1-c1cc(C#N)ccc1Cl [Compound I-0516] | 15 | – | –
COc1cc(-c2cc(C(O)C(F)(F)F)ccc2Cl)cc2c1c(=O)n(Cc1ncn(C)n1)c(=O)n2Cc1cc(F)c(F)c(F)c1 (stereo not shown) [Compound I-0517] | < 100 | – | –
COc1ccc(Cl)c(-c2cc(OC)c3c(=O)n(Cc4ncn(C)n4)c(=O)n(Cc4cc(F)c(F)c(F)c4)c3c2)c1 [Compound I-0523] | 32 | – | –
COc1nc(N2C[C@@H]3CC[C@H]2CN3)cc2c1c(=O)n(-c1cncc(Cl)c1)c(=O)n2Cc1cc(F)c(F)c(Cl)c1 [Compound I-0540] | < 100 | – | –
COc1nc(N2[C@@H]3CC[C@H]2CNC3)cc2c1c(=O)n(-c1cncc(Cl)c1)c(=O)n2Cc1cc(F)c(F)c(F)c1 [Compound I-0541] | – | – | IC50 [2, 6]: 3.4 nM
Cn1cnc(Cn2c(=O)c3c(F)c(I)c(-c4cc(C#N)ccc4Cl)cc3n(Cc3cc(F)c(F)c(Cl)c3)c2=O)n1 [Compound I-0542] | < 100 | – | –
COc1cc(-c2cc(C3(O)CC3)ccc2Cl)cc2c1c(=O)n(Cc1ncn(C)n1)c(=O)n2Cc1cc(F)c(F)c(F)c1 [Compound I-0546] | < 100 | < 100 | –
O=c1c2cnc(N3[C@@H]4CC[C@H]3CNC4)cc2n(Cc2cc(F)c(F)c(Cl)c2)c(=O)n1-c1cnc2ccccn12 [Compound I-0547] | – | – | EC50 [1, 7]: < 100 nM; IC50 [2, 6]: < 100 nM
O=c1c2c(F)cc(N3[C@@H]4CC[C@H]3CNC4)cc2n(Cc2cc(F)c(F)c(Cl)c2)c(=O)n1-c1cnc2ccccn12 [Compound I-0548] | – | – | EC50 [1, 7]: < 100 nM; IC50 [2, 6]: < 100 nM
COc1nc2c(=O)n(Cc3ncn(C)n3)c(=O)n(Cc3cc(C#N)ccc3C)c2cc1-c1cc(C#N)ccc1Cl [Compound I-0549] | < 100 | 100 to 1000 | –
COc1nc2c(=O)n(Cc3ncn(C)n3)c(=O)n(Cc3cc(Cl)cc(Cl)c3)c2cc1-c1cc(C#N)ccc1Cl [Compound I-0550] | < 100 | < 100 | –
COc1nc2c(=O)n(Cc3ncn(C)n3)c(=O)n(Cc3cc(Cl)c(F)cc3Cl)c2cc1-c1cc(C#N)ccc1Cl [Compound I-0551] | < 100 | < 100 | –
CC(C)Nc1cc2c(c(=O)n(Cc3ncn(C)n3)c(=O)n2Cc2cc(F)c(F)c(F)c2)c2ncn(C)c12 [Compound I-0553] | 100 to 1000 | – | –

Structure (SMILES) | IC50 [2, 4] [nM] | EC50 [1, 5] [nM] | other results
Cn1cnc(Cn2c(=O)c3c4ncn(C)c4c(-c4cc(C#N)ccc4Cl)cc3n(Cc3cc(F)c(F)c(F)c3)c2=O)n1 [Compound I-0556] | 0.94 | – | EC50 [1, 3]: 376 nM
COc1ccc(Cl)c(-c2cc(OC)c3c(=O)n(Cc4ncn(C)n4)c(=O)n(Cc4cc(F)c(F)c(F)c4)c3c2)c1F [Compound I-0557] | < 100 | 100 to 1000 | –
Cn1cnc(Cn2c(=O)c3c4c(c(-c5ncc(F)cc5Cl)cc3n(Cc3cc(F)c(F)c(Cl)c3)c2=O)CCO4)n1 [Compound I-0561] | < 100 | < 100 | –
Cn1cnc(Cn2c(=O)c3c4c(c(-c5cnccc5Cl)cc3n(Cc3cc(F)c(F)c(Cl)c3)c2=O)CCO4)n1 [Compound I-0563] | < 100 | < 100 | –
Cn1cnc(Cn2c(=O)c3c4c(c(N5CCC(F)(F)CC5)cc3n(Cc3cc(F)c(F)c(F)c3)c2=O)CCO4)n1 [Compound I-0565] | < 100 | < 100 | –
Cn1cnc(Cn2c(=O)c3c4nccnc4c(N4CC(F)(F)C(F)(F)C4)cc3n(Cc3cc(F)c(F)c(Cl)c3)c2=O)n1 [Compound I-0570] | 26 | – | EC50 [1, 3]: 24.7 nM
Cn1cnc(Cn2c(=O)c3c4nccnc4c(-c4c(F)cc(F)cc4F)cc3n(Cc3cc(F)c(F)c(Cl)c3)c2=O)n1 [Compound I-0571] | < 100 | < 100 | –
CC(C)=Cc1cc2c(c(=O)n(Cc3ncn(C)n3)c(=O)n2Cc2cc(F)c(F)c(Cl)c2)c2nccnc12 [Compound I-0572] | 37 | – | EC50 [1, 3]: 28.3 nM
Cn1cnc(Cn2c(=O)c3c4nccnc4c(N4CC(F)C4)cc3n(Cc3cc(F)c(F)c(Cl)c3)c2=O)n1 [Compound I-0573] | < 100 | < 100 | –
CC(C)Nc1cc2c(c(=O)n(Cc3ncn(C)n3)c(=O)n2Cc2cc(F)c(F)c(Cl)c2)c2nccnc12 [Compound I-0575] | < 100 | < 100 | –
COc1nc2c(=O)n(Cc3ncn(C)n3)c(=O)n(Cc3cc(F)c(F)c(Cl)c3)c2cc1-c1ncc(F)cc1Cl [Compound I-0578] | < 100 | < 100 | –
COc1nc2c(=O)n(Cc3ncn(C)n3)c(=O)n(Cc3cc(F)c(F)c(Cl)c3)c2cc1-c1nc(C)ccc1Cl [Compound I-0579] | 5.8 | – | EC50 [1, 3]: 12.1 nM
COc1nc2c(=O)n(Cc3ncn(C)n3)c(=O)n(Cc3cc(Cl)c(F)cc3C)c2cc1-c1ncc(F)cc1Cl [Compound I-0580] | < 100 | < 100 | –
COc1nc2c(=O)n(Cc3ncn(C)n3)c(=O)n(Cc3cc(Cl)c(F)cc3C)c2cc1-c1nc(C)ccc1Cl [Compound I-0581] | < 100 | < 100 | –
Cn1cnc(Cn2c(=O)c3c4nccnc4c(NC4CC5CC5C4)cc3n(Cc3cc(F)c(F)c(Cl)c3)c2=O)n1 (stereo not shown) [Compound I-0586] | < 100 | < 100 | –
COc1cc(-c2cc(C#N)ccc2Cl)cc2c1c(=O)n(Cc1ncn(C)n1)c(=O)n2[C@H](C)c1cc(F)c(F)c(F)c1 [Compound I-0595] | < 100 | < 100 | –
COc1nc(N2CC[C@@H](C#N)C2)cc2c1c(=O)n(Cc1ncn(C)n1)c(=O)n2Cc1cc(F)c(F)c(F)c1 [Compound I-0598] | 18 | – | EC50 [1, 3]: 13.6 nM
COc1nc(N2[C@H]3CC[C@@H]2[C@@H](O)C3)cc2c1c(=O)n(Cc1ncn(C)n1)c(=O)n2Cc1cc(F)c(F)c(F)c1 [Compound I-0602] | – | – | EC50 [1, 7]: < 100 nM; IC50 [2, 6]: < 100 nM
COc1nc(N2C3CCC(O)C2CC3)cc2c1c(=O)n(Cc1ncn(C)n1)c(=O)n2Cc1cc(F)c(F)c(F)c1 (stereo not shown) [Compound I-0610] | – | – | EC50 [1, 7]: < 100 nM; IC50 [2, 6]: < 100 nM
O=c1[nH]c(N2CCC[C@@H]2CO)cc2c1c(=O)n(-c1cnc3ccccn13)c(=O)n2Cc1cc(F)c(F)c(Cl)c1 [Compound I-0623] | < 100 | < 100 | –
COc1nc(N2CC[C@@H](C(=O)O)C2)cc2c1c(=O)n(-c1cnc3cc(F)ccn13)c(=O)n2-c1ccc(F)c(Cl)c1 [Compound I-0625] | < 100 | 100 to 1000 | –
Cn1cnc(Cn2c(=O)c3c(cc(-c4cc(C#N)ccc4Cl)n4cnnc34)n(Cc3cc(F)c(F)c(F)c3)c2=O)n1 [Compound I-0644] | < 100 | – | –
Cn1cnc(Cn2c(=O)c3nnc(N4CC[C@@H](F)C4)cc3n(Cc3cc(F)c(F)c(F)c3)c2=O)n1 [Compound I-0935] | 1000 to 10000 | – | –
